We go through two compounds from paper PMC6598645 (Chemical Science, 2019).

*1 amine or outer side, *2 acyl side, *3 side chain or, on linkers, in order; H or OH if unused. Where a SMILES comes first, the peptide text is derived from it. Bridges are numbered along the chain shown (N, C = ends). [ ]: non-standard residue; d: D form. X2 = O=C([C@H](CCNP(=O)(CC[*:3])OCc1ccccc1)N[*:1])[*:2]; Nle = CCCC[C@H](N)C(=O)O

For the assay, the system named is HeLa cells. Kind of assay: Cellular uptake of CF-labelled peptides, confocal imaging. As to conditions: 10 μM mixture of 10% fluorescein (CF) labelled and 90% non-labelled peptides, three hours, 37°C, confocal microscopy. Format: cell-based.

With `CCCC[C@H](NC(=O)[C@H](CCCNC(=N)N)NC(=O)[C@H](CCC(N)=O)NC(=O)[C@@H](NC(=O)[C@H]1CSCCP(=O)(OCc2ccccc2)NCC[C@H](NC(=O)[C@H](CC(C)C)NC(=O)[C@H](CO)NC(=O)[C@H](CCCNC(=N)N)NC(=O)[C@H](CCC(=O)O)NC(=O)[C@H](CCCNC(=N)N)NC(=O)[C@H](Cc2c[nH]cn2)NC(=O)[C@H](CCC(=O)O)NC(=O)[C@H](CC(C)C)NC(=O)[C@H](CCC(N)=O)NC(=O)[C@H](CCC(=O)O)NC(=O)[C@H](CCC(N)=O)NC(=O)[C@H](CO)NC(=O)[C@H](CC(C)C)NC(C)=O)C(=O)N[C@@H]([C@@H](C)O)C(=O)N[C@@H](CC(C)C)C(=O)N[C@@H](CCCNC(=N)N)C(=O)N1)[C@@H](C)CC)C(=O)N[C@@H](CC(C)C)C(=O)N[C@@H](Cc1ccccc1)C(N)=O` (stereo partly drawn) [compound 13, cyclic-benzylphosphonamidate-BCL9-Nle-Aha-DCys peptide] (Ac-LSQEQLEHRERSL[X2]TLR[dC]IQR[Nle]LF-NH2; thioether 14-18; N-terminus and C-terminus assumed), the cellular uptake result was “increased cellular uptake”.

As to “AcLSQEQLEHRERSL TLR IQRNMLFNH2 (sidechain bridge or staple) [compound 7, RCM-BCL9-Nle peptide]”, the cellular uptake entry is “taken up readily”.
